Test results published in US4146631A, “Benzamide derivatives” (May & Baker Limited, priority 1976, dated 1979).

Assays:
[1] = tested on: passive cutaneous anaphylactic (PCA) reaction; assay: Passive cutaneous anaphylactic (PCA) reaction, reagin-allergen combination, in rats; format: in vivo; settings: Rattus norvegicus; for ED100: intravenous, just before injection of allergen, read-out: ED100 (intravenous dose which produces 100% inhibition of the PCA reaction); for inhibition in vivo at 100 mg/kg: oral dose of 100 mg/kg; for inhibition in vivo at 100 mg/kg / ED50: thirty minutes before intravenous allergen; for ED50: oral, read-out: ED50 (oral dose which produces 50% inhibition of the PCA reaction)
Excerpt: In pharmacological tests the benzamide derivatives of general formula I suppress the passive cutaneous anaphylactic (PCA) reaction resulting from combination of tissue-fixed reaginic antibodies with the appropriate antigenic material (termed reagin-allergen combination) and carried out in an essentially similar manner to that described by Ogilvie [Nature (Lond.), (1964), 204, 91-92; Immunology, (1967), 12, 112-131]. In the method used to test these compounds sera were obtained from rats which had been infected with larvae of the nematode parasite Nippostrongylus brasiliensis; as a result of the parasitic infestation reaginic antibodies are elaborated in the host mammal and are found in sera removed from such animals. Other, non-infected, rats received intradermal injections of appropriate dilutions of such sera and were then given the allergenic material along with Evans' blue dye intravenously forty-eight hours later.
The allergenic material consisted of supernatant fluid after centrifugation of homogenates of adult Nippostrongylus brasiliensis worms which had been macerated in Tyrode's solution. The sites of PCA reactions were visualised by the effusion of Evan's blue dye from the circulation into those areas as a result of increased capillary permeability caused by the release of biologically-active substances from cells where reagin-allergen combination had occurred. The new compounds when given intravenously to the rats just before injection of allergen, or administered orally thirty minutes before intravenous injection of allergen, were able to prevent the development of the PCA reaction, as shown below in Table I, Table II and Table III.

[2] = Acute oral toxicity in mice; settings: mouse, in vivo, highest dose used 1000 mg/kg, read-out: LD50 (doses lethal to 50% of mice tested)
Excerpt: Mice were each treated orally with one of the compounds of formula I, and they were observed daily until there had been at least 3 consecutive days without any deaths. The LD50 figures obtained (doses lethal to 50% of mice tested) are shown below in Table IV, expressed in mg/kg animal body weight.
The symbol ">" means "greater than" in this specification. Where the LD50 is said to be ">1000," a more precise estimation of the LD50 was not possible because the numbers of deaths was too small, even at the highest dose used, 1000 mg/kg.

[3] = Acute intravenous toxicity in mice; settings: mouse, in vivo, 2% w/v test solution
Excerpt: Mice were each treated intravenously with an aqueous solution of the triethanolamine salt or sodium salt of one of the compounds of formula I, and they were observed until there had been at least 3 consecutive days without any deaths. The LD50 figures obtained (doses lethal to 50% of mice tested) are shown below in Table V, expressed in mg/kg animal body weight. In Table V, "Na" means that the sodium salt was used and "T" means that the triethanolamine salt was used.
The aqueous solutions were prepared as follows:
A mixture of the test compound and water was treated gradually with triethanolamine until complete solution occurred. The solution was then diluted with water to a concentration of test compound of either 1% w/v or 2% w/v.
The test compound was dissolved in aqueous sodium hydroxide (1N) and the solution was brought to pH 8 by treatment with hydrochloric acid. The solution was then diluted with water to a concentration of test compound of 2% w/v.
Various volumes of these solutions were then administered to the mice.

SMILES	ED100 [1]	inhibition in vivo at 100 mg/kg [1]	LD50 [2]	LD50 ([3]; sodium salt (Na))	ED50 [1]	LD50 ([3]; triethanolamine salt (T))
CN(C)S(=O)(=O)c1ccc(O)c(C(=O)Nc2nnn[nH]2)c1 [AB, 2-hydroxy-5-(N,N-dimethylsulphamoyl)-N-(tetrazol-5-yl)benzamide]	2 mg/kg					
CC(C)N(C)S(=O)(=O)c1ccc(O)c(C(=O)Nc2nnn[nH]2)c1 [AC, 2-hydroxy-5-(N-methyl-N-isopropylsulphamoyl)-N-(tetrazol-5-yl)benzamide]	5 mg/kg	20%				
O=C(Nc1nnn[nH]1)c1cc(O)ccc1O [AF, 2,5-dihydroxy-N-(tetrazol-5-yl)benzamide]	1 mg/kg					
Cc1ccc(O)c(C(=O)Nc2nnn[nH]2)c1 [AG, 2-hydroxy-5-methyl-N-(tetrazol-5-yl)benzamide]	1 mg/kg		> 1000 mg/kg	670 mg/kg		
Cc1cccc(C(=O)Nc2nnn[nH]2)c1O [AH, 2-hydroxy-3-methyl-N-(tetrazol-5-yl)benzamide]	0.5 mg/kg	82%	> 1000 mg/kg		10 mg/kg	770 mg/kg
O=C(Nc1nnn[nH]1)c1ccc(O)cc1O [AJ, 2,4-dihydroxy-N-(tetrazol-5-yl)benzamide]	10 mg/kg	38%				
Cc1ccc(C(=O)Nc2nnn[nH]2)c(O)c1 [AK, 2-hydroxy-4-methyl-N-(tetrazol-5-yl)benzamide]	10 mg/kg	32%				
O=C(Nc1nnn[nH]1)c1cccc(Cl)c1O [AM, 3-chloro-2-hydroxy-N-(tetrazol-5-yl)benzamide]	5 mg/kg	82%			85 mg/kg	
CCCCN(CCCC)S(=O)(=O)c1ccc(O)c(C(=O)Nc2nnn[nH]2)c1 [AQ, 5-(N,N-dibutylsulphamoyl)-2-hydroxy-N-(tetrazol-5-yl)benzamide]			> 1000 mg/kg	280 mg/kg		
COc1ccc(C(=O)Nc2nnn[nH]2)c(O)c1 [AT, 2-hydroxy-4-methoxy-N-(tetrazol-5-yl)benzamide]	5 mg/kg	8%				
O=C(Nc1nnn[nH]1)c1ccc(Cl)cc1O [AX, 4-chloro-2-hydroxy-N-(tetrazol-5-yl)benzamide]			> 1000 mg/kg			260 mg/kg
O=C(Nc1nnn[nH]1)c1cc(Br)cc(Br)c1O [AY, 3,5-dibromo-2-hydroxy-N-(tetrazol-5-yl)benzamide]	5 mg/kg	65%				
CC(=O)Nc1ccc(O)c(C(=O)Nc2nnn[nH]2)c1 [AZ, 5-acetylamino-2-hydroxy-N-(tetrazol-5-yl)benzamide]	10 mg/kg					
O=C(Nc1nnn[nH]1)c1ccc(F)cc1O [BD, 4-fluoro-2-hydroxy-N-(tetrazol-5-yl)benzamide]	10 mg/kg	75%				
CSc1ccc(O)c(C(=O)Nc2nnn[nH]2)c1 [BF, 2-hydroxy-5-methylthio-N-(tetrazol-5-yl)benzamide]	0.5 mg/kg					
CSc1cccc(C(=O)Nc2nnn[nH]2)c1O [BI, 2-hydroxy-3-methylthio-N-(tetrazol-5-yl)benzamide]	20 mg/kg					580 mg/kg
CS(=O)(=O)c1cccc(C(=O)Nc2nnn[nH]2)c1O [BJ, 2-hydroxy-3-methylsulphonyl-N-(tetrazol-5-yl)benzamide]	20 mg/kg	64%				
CS(=O)(=O)c1cc(C(=O)Nc2nnn[nH]2)c(O)c(S(C)(=O)=O)c1 [BK, 2-hydroxy-3,5-bis(methylsulphonyl)-N-(tetrazol-5-yl)benzamide]	10 mg/kg	29%				
O=Cc1ccc(O)c(C(=O)Nc2nnn[nH]2)c1 [BL, 5-formyl-2-hydroxy-N-(tetrazol-5-yl)benzamide]	0.5 mg/kg	25%				
O=C(Nc1nnn[nH]1)c1cc(Br)ccc1O [BM, 5-bromo-2-hydroxy-N-(tetrazol-5-yl)benzamide]	5 mg/kg	46%			65 mg/kg	

SMILES	ED100 [1]	inhibition in vivo at 100 mg/kg [1]	LD50 [2]	LD50 ([3]; sodium salt (Na))	ED50 [1]	LD50 ([3]; triethanolamine salt (T))
CSc1ccc(C(=O)Nc2nnn[nH]2)c(O)c1 [BN, 2-hydroxy-4-methylthio-N-(tetrazol-5-yl)benzamide]	10 mg/kg	8%				
CS(=O)(=O)c1ccc(O)c(C(=O)Nc2nnn[nH]2)c1 [BO, 2-hydroxy-5-methylsulphonyl-N-(tetrazol-5-yl)benzamide]	5 mg/kg	63%				
O=C(Nc1ccc(O)c(C(=O)Nc2nnn[nH]2)c1)OCc1ccccc1 [BQ, 5-benzyloxycarbonylamino-2-hydroxy-N-(tetrazol-5-yl)benzamide]	5 mg/kg					
O=C(Nc1ccc(C(=O)Nc2nnn[nH]2)c(O)c1)OCc1ccccc1 [BR, 4-benzyloxycarbonylamino-2-hydroxy-N-(tetrazol-5-yl)benzamide]	0.5 mg/kg					
Cc1cc(C(=O)Nc2nnn[nH]2)c(O)c(S(=O)(=O)NC(C)(C)C)c1 [BT, 3-(N-tert-butylsulphamoyl)-2-hydroxy-5-methyl-N-(tetrazol-5-yl)benzamide]			> 1000 mg/kg	500 mg/kg		
CC(=O)c1cc(Br)cc(C(=O)Nc2nnn[nH]2)c1O [CB, 3-acetyl-5-bromo-2-hydroxy-N-(tetrazol-5-yl)benzamide]	2 mg/kg	66%			64 mg/kg	
CC(=O)c1cc(F)cc(C(=O)Nc2nnn[nH]2)c1O [CC, 3-acetyl-5-fluoro-2-hydroxy-N-(tetrazol-5-yl)benzamide]	0.2 mg/kg	62%			1.9 mg/kg	
O=Cc1cccc(C(=O)Nc2nnn[nH]2)c1O [CH, 3-formyl-2-hydroxy-N-(tetrazol-5-yl)benzamide]	0.5 mg/kg	75%			5.3 mg/kg	
Cc1cc(C=O)c(O)c(C(=O)Nc2nnn[nH]2)c1 [CI, 3-formyl-2-hydroxy-5-methyl-N-(tetrazol-5-yl)benzamide]	2 mg/kg	70%			5.4 mg/kg	
N#Cc1ccc(O)c(C(=O)Nc2nnn[nH]2)c1 [CK, 5-cyano-2-hydroxy-N-(tetrazol-5-yl)benzamide]	0.2 mg/kg	89%			50 mg/kg	
Cc1cc(C(=O)Nc2nnn[nH]2)c(O)c(-c2nnn[nH]2)c1 [CM, 2-hydroxy-5-methyl-3,N-bis(tetrazol-5-yl)benzamide]	0.05 mg/kg	64%				
O=C(O)c1cccc(C(=O)Nc2nn[nH]n2)c1O [CN, 3-N-(tetrazol-5-yl)carbamoylsalicylic acid]	1 mg/kg	43%			20 mg/kg	
CC(C)(C)NC(=O)c1cccc(C(=O)Nc2nnn[nH]2)c1O [CO, 3-tert-butylcarbamoyl-2-hydroxy-N-(tetrazol-5-yl)benzamide]	5 mg/kg	26%				
CN(C)c1cccc(C(=O)Nc2nnn[nH]2)c1O [CP, 2-hydroxy-3-dimethylamino-N-(tetrazol-5-yl)benzamide]	2 mg/kg	68%			26 mg/kg	
O=C(Nc1nnn[nH]1)c1ccc([N+](=O)[O-])cc1O [Compound AA, 2-hydroxy-4-nitro-N-(tetrazol-5-yl)benzamide]	10 mg/kg	18%				
Nc1ccc(O)c(C(=O)Nc2nnn[nH]2)c1 [Compound BS, 5-amino-2-hydroxy-N-(tetrazol-5-yl)benzamide]	5 mg/kg	35%				
CC(=O)c1cc(S(N)(=O)=O)cc(C(=O)Nc2nnn[nH]2)c1O [Compound BU, 3-acetyl-2-hydroxy-5-sulphamoyl-N-(tetrazol-5-yl)benzamide]	0.5 mg/kg	86%				
O=C(Nc1nnn[nH]1)c1cc(C(F)(F)F)ccc1O [Compound BV, 5-trifluoromethyl-2-hydroxy-N-(tetrazol-5-yl)benzamide]	2 mg/kg	90%			37 mg/kg	
Cc1cc(C#N)c(O)c(C(=O)Nc2nnn[nH]2)c1 [Compound CL, 3-cyano-2-hydroxy-5-methyl-N-(tetrazol-5-yl)benzamide]	2 mg/kg	26%				
